The conditions of assay [1]: on the order of; cited from earlier work.
Assay [2] is described as follows: Langmuir isotherm, quartz crystal microbalance with dissipation (QCM-D). The assay is classed as binding. As for the experimental part: Stainless Steel Quartz Crystals (Q-Sense, QSX 304) were cleaned with a UV/Ozone treatment (Bioforce, UV […], Model No. […] The crystals were then immersed in a 2% sodium dodecyl sulfate (SDS) (MPI, Product No. 811036) in dH2O solution for 5 minutes, washed thoroughly with dH2O, N2 dried, and UV/Ozone treated for an additional 10 minutes. Surface Characterization: The QCM-D measurements (Q-Sense E4) were made with a solution flow rate of 100 μL per minute. The experiment was temperature controlled at 25° C. In the experiments, four samples were tested at one time using the QCM-D. Each experiment included running PBS for approximately 10 minutes to establish a stable baseline. The peptide solutions were then added at various concentrations until the change in frequency was 2 Hz per 30 minutes or less. The final step was to wash with PBS for 30 minutes or until the change in frequency was 2 Hz per 30 minutes or less. For analysis purposes (Sauerbrey model, Q-Tools), generally the third overtone was used from each sample.

How the values of assay [3] were obtained:
A blank solution with PBS only was also prepared.
8 mm Liberte WH stents were placed in the wells of a 48-well polystyrene plate and 240 μl of each peptide concentration (including the blank) was then added to each well. The plates were then incubated for at least 1 hr at room temperature (RT) with gentle shaking (100 rpm) to allow for binding to occur. Excess peptide solution was removed and discard using a micropipette.
The stents were then washed 3 times with 1.5 ml PBS-Tween, with approximately 30 sec of shaking at 150 rpm between washes. 1.5 ml of 1% bovine serum albumin (BSA) in PBS (blocking solution) was then added to each stent and incubated for 1 hr at RT with gentle shaking (100 rpm) to allow for blocking to occur. After 1 hr, excess blocking solution was removed and discarded with a micropipette. The stent was then washed 3 times with 1.5 ml PBS-Tween using the wash method described above.
300 μl of Streptavidin-AP (alkaline phosphatase) solution was added to each stent at 1/1000 in TBS+1% BSA and incubated for 30 min at room temperature with gentle shaking (100 rpm). Excess Streptavidin solution was then removed and discarded. The stents were then washed 2 times with 1.5 ml PBS-Tween and then transferred to a set of new wells on the same plate using tweezers. Once the stents were moved, they were then washed once more with 1.5 ml PBS-Tween. 300 μl of the chromogen p-nitrophenyl phosphate (PNPP) was added to each stent in the 48 well plate. The plate was then placed on the shaker platform and incubated for 5 minutes at 100 rpm to allow color development to occur. 10 μl of sodium hydroxide (NaOH) was then added to the wells of a 96 well tissue culture plate. To stop the color development, 100 μl of the solution in each stent containing well was transferred to a well containing NaOH in the 96 well plate.
Optical density (OD) was determined by reading the 96 well plate in a plate reader (Spectramax Plus, Molecular Devices) at 405 nm in endpoint mode. The measured OD for the blank was subtracted from the ODs for all other solutions. The resulting ODs were plotted (y-axis) vs. concentration (μM) (log x-axis).
The OD at 5 min (405 nm) was measured at 1 hr, 4 hr and 24 hrs as described above.
The OD at 5 min (405 nm) was measured and the EC50 was determined as described above.

Assay [4] deals with human coronary artery endothelial cells (HCAEC). Description: HCAEC migration on coated stainless steel strips. Type of assay: cell-based. The conditions noted are these: strips pre-coated with 10 μM peptide; 48 hours; uncoated stainless steel normalized to 1; p<0.01. An excerpt: Migration and proliferation of endothelial cells on biomaterials can impact the rates of reendothelization and angiogenesis, which can be important during the development and success of implantable medical devices. In this experiment, the effect of a surface-binding cell adhesion polypeptide on the motility of human coronary artery endothelial cells (HCAEC) on a stainless steel substrate was examined in vitro. The surface-binding cell adhesion polypeptide used in this example included DOPA as a surface binding moiety, a (ALA-Aib)3 linker, and the recognition sequence for laminin receptors (YIGSR) as the cell adhesion polypeptide [(DOPA)2-(ALA-Aib)3-YIGSR-OH, hereinafter PEPTIDE-1] (synthesized at the MGH Peptide/Protein Core Facility, Harvard Medical School, Boston, Mass.).
Human coronary artery endothelial cells (HCAEC, available from Cell Applications, Inc., San Diego, Calif.) were used in this study. The substrates were sterile stainless steel strips [3.5″×0.308″×0.031″] or sterile stainless steel strips coated with PEPTIDE-1.
Collagen gels were prepared using the following protocol: One 10 mg vial of high concentration (HC) Type I collagen (Rat tail, from BD Biosciences, San Jose, Calif.) was diluted with distilled sterile H2O to a final volume of 38 ml and mixed thoroughly without introducing bubbles (by pipetting up and down). […]

The source of these data is US20090018642A1, “Methods to improve the stability of celluar adhesive proteins and peptides” (BOSTON SCIENTIFIC SCIMED, INC., priority 2007, published 2009).

Broadly, the Kd is the constant that tells how readily two partners part at equilibrium. A lower Kd goes with tighter binding.

Like-named read-outs stand apart in the source and are kept apart here. Bounds are passed on as bounds.

`N[C@@H](Cc1ccc(O)c(O)c1)C(=O)O` [DOPA, 3,4 dihydroxyphenylalanine]: the binding constant in assay [1] is on record as ~10^16.

For “(DOPA)2-(ALA-Aib)3-RIGSY-(Biotin)-OH [PEPTIDE-2]”, the “affinity for stainless steel in comparison to BSA” value in assay [2] (greater affinity than non-specific protein BSA) is “approx. 3 orders of magnitude”. Moreover, the EC50 is 310 nM in assay [3] (incubation time study, 1 hr); 300 nM in assay [3] (incubation time study, 4 hr); 270 nM in assay [3] (incubation time study, 24 hr); about 370 nM in assay [3] (read-out: half-maximal concentration (EC50), concentration range study, coating 1 hour at room temperature).

(DOPA)2-(ALA-Aib)3-YIGSR-OH [PEPTIDE-1]: the “HCAEC migration compared to stainless steel alone” value in assay [4] was 1.7 fold.

(Dopa)2-(Ala-Aib)3-RIGSY-OH [PEPTIDE-3]: the EC50 in assay [2] (QCM-D, 25° C.) was found to be 280 nM. The same molecule showed a Kd in assay [2] (QCM-D, 25° C., Langmuir isotherm fit) of 260 nM.

Consider “bovine serum albumin [BSA, reference compound]”, for which the EC50 in assay [2] (QCM-D, 25° C.) is at least 100000 nM.
